Article PMC12362796, “Bilirubin Targeting WNK1 to Alleviate NLRP3‐Mediated Neuroinflammation” (Advanced Science, 2025)

Legend:
[1] = Osmolarity of different bilirubin concentrations; format: physicochemical; settings: low concentrations of bilirubin
Excerpt: To further investigate the impact of bilirubin on WNK1 kinase activity, we generated hippocampal neuron‐specific Wnk1 knockout mice. Given that conventional Wnk1 knockout mice are embryonically lethal, we employed the CRISPR/Cas9 method to create mice carrying the floxed Wnk1 gene. Then we crossed Thy1‐Cre mice with Wnk1^flox/flox mice to generate hippocampal neuron‐specific Wnk1 knockout mice. We examined the effects of bilirubin on the phosphorylation of WNK1 downstream targets, Ste20‐related proline alanine‐rich kinase (SPAK), and oxidative stress‐responsive kinase 1 (OSR1), in the hippocampus of Wnk1^flox/flox and Wnk1^flox/flox,Thy1‐Cre mice. Upon bilirubin treatment, phosphorylation of OSR1 and SPAK was elevated in the hippocampus of Wnk1^flox/flox mice. […] These findings indicate that the effect of bilirubin on OSR1 and SPAK phosphorylation is WNK1‐dependent (Figure 4B). To rule out the potential effects of osmolarity on the phosphorylation of WNK1, OSR1, and SPAK, we measured the osmolarity of different bilirubin concentrations.

[2] = target: MRGPRs; set-up: method as in PMID 37390966, PMID 30657454; settings: peripheral sensory neurons; cited from earlier work
[3] = test system: TRPM2 channels; set-up: method as in PMID 36921602; settings: activation of TRPM2 channels; cited from earlier work
[4] = test system: WNK1 phosphorylation at Thr58; experiment: Western blotting of WNK1 phosphorylation in cochlear nucleus; format: cell-based; settings: mouse cochlear nuclei, 30 min
Protocol: (§1) To validate these findings, SH‐SY5Y cells were incubated in a serum‐free medium with bilirubin (6 µM) or an equivalent amount of DMSO as the control, followed by protein denaturation at different temperatures (Figure 1A).
C57BL/6 mice at postnatal day 10 (P10) were euthanized on ice, and their cochlear nuclei were dissected and incubated in artificial cerebrospinal fluid (ACSF), with or without 3 µM bilirubin, followed by rapid freezing in liquid nitrogen. The ACSF composition was 124 mM NaCl, 5 mM KCl, 1.2 mM KH2PO4, 1.3 mM MgCl2, 2.4 mM CaCl2, 24 mM NaHCO3, and 10 mM glucose (pH 7.4).
(§2) Cells or tissues were lysed by grinding in RIPA buffer (cat. no. PC101; Epizyme Biotech) supplemented with a protease inhibitor cocktail (cat. no. 5872S; Cell Signaling Technology) at 4 °C. The lysate was subsequently centrifuged at 16000 × g for 30 min at 4 °C and the resulting supernatant was collected. The total protein concentration was determined using the Pierce BCA Protein Assay Kit (cat. no. 23 225, Thermo Fisher Scientific). The samples were denatured in a Protein Sample Loading Buffer (cat. no. LT101; Epizyme Biotech) at 95 °C and subjected to SDS‐polyacrylamide gel electrophoresis. Following electrophoresis, the proteins were transferred onto a nitrocellulose membrane (cat. no. HATF00010; Millipore) using a transfer buffer composed of 25 mM Tris, 190 mM glycine, and 20% methanol. […]

[5] = target: T1, WNK1 (Homo sapiens, UniProt Q9H4A3); experiment: CETSA-Western blotting in SH-SY5Y cells; format: cell-based; settings: 6 µM in serum-free medium vs DMSO, denaturation at different temperatures, soluble fraction
T1 construct: endogenous in cells; host or cells: SH-SY5Y
Protocol: as §1
as §2, with “methanol. Membranes were blocked with blocking buffer for western blotting (cat. no. P0252; Beyotime Biotechnology) at room temperature for 15 min, followed by overnight incubation with the primary antibody at 4 °C. After primary antibody incubation, the membranes were washed and incubated with secondary antibody at room temperature for 1 h.” for “methanol.”

[6] = target: T2, WNK1 (191–491) (Homo sapiens, UniProt Q9H4A3); experiment: MST, EGFP-tagged WNK1 truncation 191–491; format: binding; settings: WNK1 191–491, 15 min, HEK293T lysates
T2 construct: different lengths of WNK1 truncations (1–491, 1–190, 191–491, 491–2382); expressed in transfected cells; host or cells: HEK293T
Excerpt: To further validate these findings, we constructed GFP‐tagged fusion proteins with different lengths of WNK1 truncations (1–491, 1–190, 191–491, 491–2382) based on the WNK1 domains (Figure 3E) and analyzed their binding capacity with bilirubin using MST analysis.^[ [29] ^]
All WNK1 clones were derived from the original untagged hWNK1 cDNA (NM_018979), which was modified and subcloned into the pcDNA3.1, referred to as “full‐length WNK1” throughout this study. Truncated constructs, including 1–190aa, 191–491aa, 1–491aa, and 491–2382aa fragments, were generated by PCR using the full‐length template and subsequently ligated into linearized pcDNA3.1 vectors. WNK2 was obtained from Addgene Plasmid #24569, and WNK3 was obtained from Addgene Plasmid #81723. Both were subjected to base modifications and cloned into pcDNA3.1. The WNK4 clone was derived from hWNK4 cDNA (NM_032387.5), modified, and subcloned into the pCMV3‐C‐GFPSpark vector.
In HEK293T cells, proteins tagged with green fluorescent protein (GFP) were expressed. The cells were lysed using the M‐PER Mammalian Protein Extraction Reagent (cat. no. 78505, Thermo Scientific) supplemented with protease inhibitors. Lysates were centrifuged at 12000 × g for 15 min at 4 °C, and the supernatant containing proteins was diluted 10‐fold with 1x PBST. […]

[7] = test system: cochlear nuclei and hippocampus neurons; experiment: Neuronal excitability in cochlear nuclei and hippocampus neurons; format: cell-based
Excerpt: To ascertain whether bilirubin regulates chloride ions through WNK1, we generated Wnk1 gene knockout primary cultured neurons. We achieved neuron‐specific deletion of Wnk1 in hippocampal neurons by transducing primary neurons isolated from Wnk1^flox/flox embryonic mice with a lentivirus expressing hSyn‐Cre‐EGFP.^[ [33], [34] ^] […] Intracellular chloride concentration is crucial for modulating inhibitory synaptic transmission and, consequently, neuronal excitability.

T1 sequence (Q9H4A3 whole entry): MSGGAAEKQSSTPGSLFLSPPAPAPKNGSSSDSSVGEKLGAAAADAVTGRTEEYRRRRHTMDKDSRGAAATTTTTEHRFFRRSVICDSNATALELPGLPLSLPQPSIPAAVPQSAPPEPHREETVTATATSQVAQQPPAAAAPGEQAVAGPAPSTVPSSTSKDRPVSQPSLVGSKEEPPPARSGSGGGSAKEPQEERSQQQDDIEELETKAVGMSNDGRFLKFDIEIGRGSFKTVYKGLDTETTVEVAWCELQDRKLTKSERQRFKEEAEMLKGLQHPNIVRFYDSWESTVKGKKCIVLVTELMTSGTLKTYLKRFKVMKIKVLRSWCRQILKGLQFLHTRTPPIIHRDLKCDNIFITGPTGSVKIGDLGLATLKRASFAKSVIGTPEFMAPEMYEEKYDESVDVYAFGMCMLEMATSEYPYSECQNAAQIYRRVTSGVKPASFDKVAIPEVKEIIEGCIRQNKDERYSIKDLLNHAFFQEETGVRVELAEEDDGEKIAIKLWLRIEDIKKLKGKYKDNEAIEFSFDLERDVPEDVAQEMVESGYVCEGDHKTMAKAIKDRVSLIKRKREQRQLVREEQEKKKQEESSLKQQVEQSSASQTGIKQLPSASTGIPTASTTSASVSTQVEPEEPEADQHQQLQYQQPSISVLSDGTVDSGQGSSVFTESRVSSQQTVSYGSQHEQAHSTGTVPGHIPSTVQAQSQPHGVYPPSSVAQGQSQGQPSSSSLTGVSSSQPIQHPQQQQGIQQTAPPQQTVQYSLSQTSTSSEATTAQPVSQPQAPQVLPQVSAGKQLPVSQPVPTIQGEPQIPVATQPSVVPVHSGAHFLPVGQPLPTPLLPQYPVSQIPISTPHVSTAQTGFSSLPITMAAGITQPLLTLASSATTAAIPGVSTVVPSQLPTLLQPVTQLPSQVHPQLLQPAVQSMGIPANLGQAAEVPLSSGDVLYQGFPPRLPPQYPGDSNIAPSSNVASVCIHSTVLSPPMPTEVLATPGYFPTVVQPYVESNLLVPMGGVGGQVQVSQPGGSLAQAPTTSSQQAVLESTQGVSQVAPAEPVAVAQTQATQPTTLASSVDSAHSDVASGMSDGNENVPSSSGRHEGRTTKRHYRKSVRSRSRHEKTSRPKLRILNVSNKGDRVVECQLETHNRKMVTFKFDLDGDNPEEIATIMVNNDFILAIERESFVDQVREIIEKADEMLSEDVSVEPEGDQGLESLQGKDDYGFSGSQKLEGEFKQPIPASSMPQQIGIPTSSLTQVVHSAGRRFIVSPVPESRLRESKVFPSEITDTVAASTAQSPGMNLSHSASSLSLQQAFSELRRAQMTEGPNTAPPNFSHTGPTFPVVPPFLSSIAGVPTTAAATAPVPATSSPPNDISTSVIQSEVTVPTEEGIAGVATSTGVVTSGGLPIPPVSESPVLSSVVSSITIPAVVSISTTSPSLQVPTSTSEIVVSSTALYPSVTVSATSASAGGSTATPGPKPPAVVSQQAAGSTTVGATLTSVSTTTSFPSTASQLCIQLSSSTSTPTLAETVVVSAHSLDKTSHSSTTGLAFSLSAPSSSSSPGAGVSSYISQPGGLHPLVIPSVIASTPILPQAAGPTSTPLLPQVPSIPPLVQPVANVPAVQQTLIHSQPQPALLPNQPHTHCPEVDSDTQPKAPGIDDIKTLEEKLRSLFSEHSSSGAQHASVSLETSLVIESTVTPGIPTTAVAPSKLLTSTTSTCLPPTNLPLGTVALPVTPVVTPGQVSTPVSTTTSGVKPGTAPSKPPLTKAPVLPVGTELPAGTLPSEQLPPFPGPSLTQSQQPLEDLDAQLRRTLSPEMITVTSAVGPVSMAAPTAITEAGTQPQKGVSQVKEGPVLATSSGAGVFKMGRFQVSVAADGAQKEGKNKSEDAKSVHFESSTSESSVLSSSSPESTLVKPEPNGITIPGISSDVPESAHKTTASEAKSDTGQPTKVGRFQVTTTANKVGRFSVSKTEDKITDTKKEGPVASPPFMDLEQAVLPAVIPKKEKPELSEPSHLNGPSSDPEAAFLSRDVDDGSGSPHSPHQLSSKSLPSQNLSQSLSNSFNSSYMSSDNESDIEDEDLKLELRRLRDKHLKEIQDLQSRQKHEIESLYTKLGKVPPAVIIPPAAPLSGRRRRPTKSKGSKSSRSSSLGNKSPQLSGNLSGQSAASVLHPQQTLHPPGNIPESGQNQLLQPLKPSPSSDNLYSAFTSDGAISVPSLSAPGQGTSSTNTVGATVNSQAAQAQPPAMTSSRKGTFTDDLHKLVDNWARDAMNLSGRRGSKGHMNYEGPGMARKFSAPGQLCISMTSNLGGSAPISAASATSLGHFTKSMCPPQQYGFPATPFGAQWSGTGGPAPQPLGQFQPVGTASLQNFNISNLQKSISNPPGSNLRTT
T2 sequence (Q9H4A3 191-491): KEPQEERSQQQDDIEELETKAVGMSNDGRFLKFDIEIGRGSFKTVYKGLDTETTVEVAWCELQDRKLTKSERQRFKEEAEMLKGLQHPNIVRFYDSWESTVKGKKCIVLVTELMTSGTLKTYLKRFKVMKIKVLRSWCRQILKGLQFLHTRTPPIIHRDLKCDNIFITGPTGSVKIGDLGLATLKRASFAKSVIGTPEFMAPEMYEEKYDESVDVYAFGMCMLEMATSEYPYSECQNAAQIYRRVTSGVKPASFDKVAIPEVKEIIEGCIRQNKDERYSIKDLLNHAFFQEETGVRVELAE

C=CC1=C(C)/C(=C/c2[nH]c(Cc3[nH]c(/C=C4\NC(=O)C(C)=C4C=C)c(C)c3CCC(=O)O)c(CCC(=O)O)c2C)NC1=O [bilirubin, Bilirubin]
osmolarity [1]: didn't change the osmolarity | Kd [2]: 54.4 to 92.9 µM | EC50 [3]: 1.9 µM | WNK1 phosphorylation at Thr58 (Thr60 in humans) [4]: substantial reduction | thermal stability of WNK1 [5]: enhanced thermal stability | Kd [6]: 0.028 µM | neural excitability [7]: induces neural hyperexcitability
